EPA's ToxValDB 9.5 (doi:10.2903/j.efsa.2010.1905)
≈ marks a conversion by molar mass, not a printed value.

What was measured:
[1] = test system: Anas platyrhynchos; settings: oral, mortality
[2] = test system: Apis mellifera; settings: acute; oral; unspecified; mortality
[3] = test system: Colinus virginianus; settings: for NOEC: reproduction developmental
[4] = test system: Mus musculus; settings: acute; oral; mortality
[5] = test system: Pimephales promelas; settings: chronic/long-term; duration: 32 days; growth
[6] = test system: Rattus norvegicus
[7] = test system: Aphidius rhopalosiphi; experiment: LR50; higher = less toxic; settings: not reported; mortality
[8] = test system: Typhlodromus pyri; experiment: LR50; higher = less toxic; settings: not reported; mortality
[9] = test system: Cyprinus carpio; settings: acute; duration: 96 hours; mortality
[10] = test system: Daphnia magna; settings: chronic/long-term; duration: 21 days; reproduction
[11] = test system: Neomysis kadiakensis; settings: chronic/long-term; duration: 28 days; reproduction
[12] = test system: Tagia sp.; settings: acute; duration: 14 days; mortality
[13] = subchronic, duration: 90 days, oral

CCCCOC(=O)[C@@H](C)Oc1ccc(Oc2ccc(C(F)(F)F)cn2)cc1 [Fluazifop-P-butyl]
LD50 ([1]; acute, unspecified): > 3960 mg/kg-day
LC50 ([1]; short-term, feed): > 942 mg/kg-day
LD50 [2]: > 200 µg/piece
LC50 ([3]; acute, oral, diet, mortality): > 1070 mg/kg-day
LD50 ([3]; acute, oral, mortality): > 2000 mg/kg-day
NOEC [3]: 86.8 mg/kg-day
LD50 [4]: > 2000 mg/kg-day
NOEC [5]: 0.077 mg/L
NOAEL ([6]; chronic, mortality): 6.72 mg/kg-day
NOAEL ([6]; developmental, development): 2 mg/kg-day
NOAEL [6, 13]: 0.9 mg/kg-day
LR50 [7]: 177 g/ha
LR50 [8]: 5.6 g/ha

C[C@@H](Oc1ccc(Oc2ccc(C(F)(F)F)cn2)cc1)C(=O)O [Fluazifop-P]
NOEC [5]: 1.46 mg/L
NOAEL ([6]; developmental, development): 2 mg/kg-day
NOAEL [6, 13]: 0.9 mg/kg-day

CCCCOC(=O)C(C)Oc1ccc(Oc2ccc(C(F)(F)F)cn2)cc1 (configuration not stated) [Fluazifop-butyl]
NOEC [3]: 3.95 mg/kg-day
LC50 [9]: 1.31 µg/mL (≈ 3.42 µM)
NOEC [10]: 0.25 mg/L
NOEC [11]: 0.0477 mg/L
NOAEL ([6]; reproduction developmental, reproduction): 6.72 mg/kg-day
LC50 [12]: > 1000 mg/kg
